This note sets out measurements from patent EP4603105A1, “PHARMACEUTICAL COMPOSITION CONTAINING CYCLIC COMPOUND HAVING SELECTIVE KRAS INHIBITORY EFFECT AGAINST HRAS AND NRAS” (CHUGAI SEIYAKU KABUSHIKI KAISHA, priority 2022, dated 2024).

Assay [1] has as its system human pancreatic cancer strain KP4. In kind it is cell-based. The essentials:
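KP4 pancreatic cancer cells seeded at 500 cells/well in DMEM/Ham's F-12 with 10% FBS onto serially diluted compound. Viability read by CellTiter-Glo luminescence.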

The target of assay [2] is HRAS wild-type protein (Homo sapiens, UniProt P01112). Kind of assay: Binding to HRAS by surface plasmon resonance (SPR), KD and KD ratio to KRAS. The following applies: ratio of KD for HRAS wild-type protein to KD for KRAS. The method in brief:
(§1)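 Affinity is measured by surface plasmon resonance at 30°C against captured, GDP-loaded RAS carrying a biotinylated Avi tag. Compounds are titrated by single-cycle kinetics, and KD comes from a 1:1 fit.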

For assay [3], the system named is human lung cancer strain NCI-H441. It is filed as cell-based. The essentials: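 Readout: […] after the ATP-based reagent. Compound: serial dilutions in dimethyl sulfoxide.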
Assay [4] has as its system human colorectal cancer strain GP2d. It is filed as cell-based. The essentials:
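Cells seeded at 500 cells/well in DMEM with 10% FBS onto serially diluted compound in DMSO, then cultured 7 days at 37°C, 5% CO2. Viability read by CellTiter-Glo luminescence.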

Assay [5] concerns human ovarian cancer strain OV7. It is filed as cell-based. The essentials:
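OV7 cells, 250 per well, in DMEM/Ham's F-12 with 5% FBS, 0.5 µg/mL hydrocortisone and 10 µg/mL insulin, grown 7 days at 37°C with serially diluted compound. Viability by CellTiter-Glo luminescence.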

Assay [6] concerns the target GDP-bound KRAS wild-type protein (Homo sapiens, UniProt P01116). In words: Binding to KRAS by surface plasmon resonance (SPR), dissociation constant KD. Particulars: Single Cycle Kinetics. The essentials: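 Read-out is KD from 1:1 fitting of single-cycle kinetics sensorgrams, blank-cycle and reference-surface corrected. Proteins were GDP-loaded, biotinylated Avi-fusions freshly captured each cycle at roughly 100–300 RU. Runs were at 30°C in HBS pH 7.4 with MgCl2, GDP and 4% DMSO.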
(In general: Surface plasmon resonance follows binding to a sensor surface in real time, without labels.)

In assay [7] the test system is human gastric cancer strain SNU-1. In kind it is cell-based. The essentials:
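SNU-1 gastric cancer cells, 250 cells/well in RPMI-1640 with 10% FBS, glucose, HEPES and sodium pyruvate, plated onto serially diluted compound in DMSO.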

The test system of assay [8] is human bladder cancer strain UM-UC-3. It is filed as cell-based. The essentials:
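UM-UC-3 human bladder cancer cells were seeded at 250 cells/well onto serially diluted compound in MEM with 10% FBS. Viability was read as CellTiter-Glo luminescence.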

Assay [9] addresses GDP-bound NRAS wild-type protein (Homo sapiens, UniProt P01111). Kind of assay: Binding to NRAS by surface plasmon resonance (SPR), KD and KD ratio to KRAS. The following applies: ratio of KD for GDP-bound NRAS wild-type protein to KD for KRAS. The essentials: as §1
Assay [10] relates to human gastric cancer strain GSU. It is filed as cell-based. The method in brief: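 Cells seeded at 200 per well in RPMI-1640 with 10% FBS onto serially diluted compound (DMSO) in U-bottom plates. Viability read by CellTiter-Glo luminescence.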

Sequence of GDP-bound NRAS wild-type protein (P01111 whole entry): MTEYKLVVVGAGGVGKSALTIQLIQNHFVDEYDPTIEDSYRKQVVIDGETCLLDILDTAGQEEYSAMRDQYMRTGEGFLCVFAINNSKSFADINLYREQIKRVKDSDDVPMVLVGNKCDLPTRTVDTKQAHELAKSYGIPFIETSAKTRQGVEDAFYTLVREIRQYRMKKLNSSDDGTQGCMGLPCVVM
Sequence of HRAS wild-type protein (P01112 whole entry): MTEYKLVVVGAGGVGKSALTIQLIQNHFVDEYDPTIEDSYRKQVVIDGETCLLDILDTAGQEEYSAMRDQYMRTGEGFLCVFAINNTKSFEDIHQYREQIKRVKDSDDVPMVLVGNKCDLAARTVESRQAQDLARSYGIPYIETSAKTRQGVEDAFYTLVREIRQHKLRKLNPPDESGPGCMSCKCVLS
Sequence of GDP-bound KRAS wild-type protein (P01116 1-188 isoform P01116-2): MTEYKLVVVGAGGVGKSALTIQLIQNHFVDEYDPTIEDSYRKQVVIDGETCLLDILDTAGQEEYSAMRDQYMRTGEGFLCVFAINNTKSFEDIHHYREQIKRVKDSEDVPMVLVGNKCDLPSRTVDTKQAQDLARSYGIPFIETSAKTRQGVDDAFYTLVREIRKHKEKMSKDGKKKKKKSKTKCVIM

The IC50 is the concentration that inhibits the measured activity by half. As usually defined, the Kd is the constant that tells how readily two partners part at equilibrium. Regarding `CCO[C@@H]1C[C@H]2C(=O)OC3(CCC3)C(=O)N(C)[C@@H](C3CCCC3)C(=O)N(C)[C@H](C(=O)N(C)C)CC(=O)N(C)[C@@H]([C@@H](C)OC)C(=O)N[C@@H]([C@@H](C)CC)C(=O)N(C)CC(=O)N(C)[C@H]3C/C=C\CCN(C3=O)[C@@H](Cc3ccc(C)cc3)C(=O)N(C)CC(=O)N[C@@H](CCc3ccc(C(F)(F)F)c(OC)c3)C(=O)N2C1` [PP3394, (2S,8S,12R,14S,20S,23S,27S,30S,36S,38Z)-20-cyclopentyl-12-ethoxy-27-[(1R)-1-methoxyethyl]-8-[2-[3-methoxy-4-(trifluoromethyl)phenyl]ethyl]-N,N,4,19,22,26,32,35-octamethyl-30-[(1S)-1-methylpropyl]-3,6,9,15,18,21,25,28,31,34,42-undecaoxo-2-(p-tolylmethyl)spiro[16-oxa-1,4,7,10,19,22,26,29,32,35-decazatricyclo[34.5.1.0^10,14]dotetracont-38-ene-17,1'-cyclobutane]-23-carboxamide], the IC50 is 3.9 nM in assay [1]; 4.1 nM in assay [3]; 2.5 nM in assay [4]; 4.7 nM in [5]; 3.9 nM in assay [7]; 1.8 nM in assay [8]. This molecule also had a half-inhibitory concentration (IC50) in [10] of 0.4 nM. Also, the “HRAS /KRAS” value in [2] was “A (a compound having 10 or more and less than 20 is denoted as A)”. In addition, in assay [6], the affinity, expressed as Kd, was 0.1 nM. Further, the “NRAS /KRAS” value in assay [9] was “A (a compound having 10 or more and less than 20 is denoted as A)”.
